Earlier results, collected in patent US9642799B2, “Crystalline 6-(2-((4-amino-3-(3-hydroxyphenyl)-1H-pyrazolo[3,4-D]pyrimidin-1-yl)methyl)-3-(2-chlorobenzyl)-4-0X0-3,4-dihydroquinazolin-5-yl)-N,N-bis(2-methoxyethyl)hex-5-ynamide” (Respivert Limited, priority 2012, dated 2017).

Key:
mice = details: stimulated by TNFα
[1] = test system: ovalbumin-sensitized, ovalbumin-challenged mice
murine model = details: administered by aerosolisation
[2] = elicited by either LPS or cigarette smoke

SMILES	neutrophil accumulation in the lungs and neutrophil function (mice)	airways hyper-responsiveness, IgE release, pro-inflammatory cytokine expression, inflammatory cell accumulation into the lung and vascular permeability [1]	pulmonary eosinophilia, interleukin-13, mucin accumulation and airways hyperesponsiveness (murine model)	pulmonary neutrophilia [2]
Cc1ccccc1-n1c(Cn2cnc3c(N)ncnc32)nc2cccc(C)c2c1=O [IC-87114]	lowered	found to inhibit	–	–
Nc1nc(N)c2nc(-c3cccc(O)c3)c(-c3cccc(O)c3)nc2n1 [TG100-115]	–	–	reported to inhibit	able to inhibit
